Structures can show the parent of a compound that is named as a salt. Where two headings read alike, the source gives them in different places.
Key:
[1] = test system: Balanus amphitrite stage II naupliar larvae
Method: Pharmaceuticals from the respective manufacturers were treated in the following way. A pill containing a known amount of active ingredient (as stated in product information) was ground in a mortar and pestle and a suspension of 2 mg ml^−1 generated in de-ionized water. This stock solution is stored at −20° C. in 4 ml amber screw cap vials. For the bioassays, 250 ul of stock solution is added to 10 ml of 1 um filtered seawater. This suspension was then sonicated for 10 minutes. Serial dilutions of this 50 μg ml^−1 seawater solution, or suspension, with seawater was done to generate the required range of concentrations.
Stage II naupliar larvae used in tests were obtained from Balanus amphitrite adults collected from inter-tidal rock walls at Kranji mangrove, Singapore. Larvae were collected from a container of adults by attraction to a point source of light and transferred to 500 ml of fresh seawater. Next, larvae were re-concentrated with a fiber optic light and added to assays.
Duplicate assays were conducted in 2 ml micro-centrifuge tubes (Axygen MCT-200-C) in 1.5 ml of filtered seawater for 22 to 24 hours. The assays were repeated for confirmation. There were four controls (vehicle only, 0 μg ml^−1), and 2 tubes of each for each test concentration. The assay was initiated by addition of barnacle nauplii in 50 to 100 μl of seawater.
After 22 to 24 hours of incubation at 25-27° C., solutions containing test animals were transferred to a Bogorov tray and scored as living or dead. Moribund larvae were scored as dead. Results were confirmed by repeating the assay. […] If data were not appropriate for probit analysis, the LC50 was estimated from graphed data.

Bugula neritina larvae = assay: Bioassay against bryozoan larvae; format: in vivo; conditions: crude rank, best (1) to worst (8)
Method: Bugula neritina (Phylum Bryozoa, Class Gymnolaemata, Order Cheilostomatida) is a cosmopolitan species of bryozoan, commonly found in most marine fouling communities. The larvae are brooded in ovicells found on the stem of the colonies. When released, the larva will settle quickly on most surfaces, within a few minutes. At 24° C., the settled larvae forms the one-cell ancestrula, and after 48 hours, the lophophore has developed and extended for feeding.
Adult colonies of Bugula neritina were collected from fouling communities growing on the submerged pontoons on a floating fish farm located off Changi, Singapore. Adult animals were maintained in the open-circulation aquarium at St John's island marine laboratory, Singapore. The adults were kept in total darkness for 24 hours. On exposure to light, larvae were released after half an hour. […] Because the larvae will settle quickly, larvae were pipetted directly into test wells in 1 ml of seawater using a graduated glass pipette.
4 replicates were done for each treatment. After 24 hours, larvae were scored as settled, swimming or dead/deformed. The assay plates were usually kept for another 24 hours and checked again, to ascertain that the settled larvae had developed into viable colonies with lophophores. Two trials were repeated for each compound.
Bioassays were carried out using the method described above, in July 2003 during the peak spawning season for Bugula.

marine bacteria = assay: Growth assay (absorbance, 96-well plates); format: cell-based, marine bacteria isolated from Singapore fouling communities; conditions: for Number of strains with strongly inhibited growth / Inhibition of bacterial growth: 25 μg ml^−1; for Number of strains with strongly inhibited growth: 25 strains of Table 5
Method: The dried powder was re-suspended in sterile deionized water and made up to 2 mg ml^−1.
The same bacterial strains were used and cultured the same way as in disc inhibition assay. Cells were harvested by centrifugation at 300 rpm for 10 min. The supernatant was discarded and the pellet re-suspended using sterile seawater collected from St. John's island, Singapore. The concentration of bacterial cells was adjusted to an absorbance of approximately 0.6 using a spectrophotometer (Beckman DU530) at wavelength 600 nm.
The growth with response to the pharmaceuticals was assumed to be proportional to the absorbance of the bacteria. […] To each well 25 μl of each drug solution (concentration adjusted to 100 μg ml^−1) were pipetted into three wells followed by 10 μl of broth and 65 μl of sterile seawater. For wells that were to contain bacteria, 60 μl of sterile seawater was used instead. All wells used for growth studies were prepared in triplicate and inoculated with 5 μl of the bacterial suspension. Blanks consisting of the respective volumes of pharmaceutical with Marine Broth and distilled water, if needed, were prepared in triplicate and inoculated with 5 μl of sterile seawater.
The absorbance (A600) of each well was read in a plate reader (Sunrise Tecan Model F039300) immediately (time=0 hours) and after 1, 2, 3, 4, 20, 23 and 28 hours. Plates were incubated overnight inside a moistened airtight container.
Any changes in absorbance were plotted and compared with control. The mean absorbance (mean bac) from the bacteria was obtained by deducting the absorbance values of blank wells (containing seawater and broth only) from that for the control wells (containing bacteria in seawater and broth only). The absorbance arising from the drugs was obtained from the 0 hr reading for wells containing drugs and bacteria, minus the wells with drugs alone (mean “drug”). The growth assays were repeated three times.

[2] = barnacle nauplii, 22 to 24 hours, concentration that caused 50% mortality

CN1CCN(C(c2ccccc2)c2ccccc2)CC1 [CYZ, Cyclizine hydrochloride]
LD50 [1, 2]: 61.05 ng/mL | Toxicity to barnacle nauplii and cyprids ([1]; in vivo): toxic to barnacle nauplii and cyprids | Prevention of settlement of Bugula larvae (Bugula neritina larvae): 5

CCCCCCCCCC(=O)OC1(c2ccc(Cl)cc2)CCN(CCCC(=O)c2ccc(F)cc2)CC1 [HDL, haloperidol decanoate]
LD50 ([1]; Balanus amphitrite, in vivo): 252.68 ng/mL | Toxicity to barnacle nauplii and cyprids ([1]; in vivo): toxic to barnacle nauplii and cyprids | Prevention of settlement of Bugula larvae (Bugula neritina larvae): 4

CN(C)C(=O)C(CCN1CCC(O)(c2ccc(Cl)cc2)CC1)(c1ccccc1)c1ccccc1 [IMD, Loperamide hydrochloride]
LD50 [1, 2]: 241.34 ng/mL | Prevention of settlement of Bugula larvae (Bugula neritina larvae): 7

CN1CCN(CCCN2c3ccccc3Sc3ccc(Cl)cc32)CC1 [PCZ, prochlorperazine maleate]
LD50 [1, 2]: 3.54 ng/mL | Toxicity to barnacle nauplii and cyprids ([1]; in vivo): very toxic to nauplii and cyprids | Prevention of settlement of Bugula larvae (Bugula neritina larvae): 2 | Number of strains with strongly inhibited growth (marine bacteria): 11 | Growth response (absorbance over time) (marine bacteria; 25 μg ml−1, strain named in the value): slight growth response of bacteria strain 11 | Inhibition of bacterial growth (marine bacteria; strain 1 (Rhodovulum)): 0 | Inhibition of bacterial growth (marine bacteria; strain 2 (Erythrobacter)): 0 | Inhibition of bacterial growth (marine bacteria; strain 3 (Erythrobacter)): +++ (+++ denotes little or no growth, p < 0.001) | Inhibition of bacterial growth (marine bacteria; strain 4 (Bacillus)): +++ (+++ denotes little or no growth, p < 0.001) | Inhibition of bacterial growth (marine bacteria; strain 6 (Vibrio)): 0 | Inhibition of bacterial growth (marine bacteria; strain 7 (Vibrio)): + (+ denotes growth present but inhibited, p < 0.01) | Inhibition of bacterial growth (marine bacteria; strain 8 (Bacillus)): +++ (+++ denotes little or no growth, p < 0.001) | Inhibition of bacterial growth (marine bacteria; strain 9 (Bacillus)): +++ (+++ denotes little or no growth, p < 0.001) | Inhibition of bacterial growth (marine bacteria; strain 10 (Halobacillus)): +++ (+++ denotes little or no growth, p < 0.001) | Inhibition of bacterial growth (marine bacteria; strain 11 (Pseudomonas)): + (+ denotes growth present but inhibited, p < 0.01) | Inhibition of bacterial growth (marine bacteria; strain 12 (Gordonia)): +++ (+++ denotes little or no growth, p < 0.001) | Inhibition of bacterial growth (marine bacteria; strain 13 (Bacillus)): +++ (+++ denotes little or no growth, p < 0.001) | Inhibition of bacterial growth (marine bacteria; strain 14 (Vibrio)): 0 | Inhibition of bacterial growth (marine bacteria; strain 16 (Pseudoalteromonas)): 0 | Inhibition of bacterial growth (marine bacteria; strain 17 (Gordonia)): +++ (+++ denotes little or no growth, p < 0.001) | Inhibition of bacterial growth (marine bacteria; strain 18 (Microbacterium)): +++ (+++ denotes little or no growth, p < 0.001) | Inhibition of bacterial growth (marine bacteria; strain 19 (Erythrobacter)): +++ (+++ denotes little or no growth, p < 0.001) | Inhibition of bacterial growth (marine bacteria; strain 20): + (+ denotes growth present but inhibited, p < 0.01) | Inhibition of bacterial growth (marine bacteria; strain 21): 0 | Inhibition of bacterial growth (marine bacteria; strain 24): 0 | Inhibition of bacterial growth (marine bacteria; strain 26): 0 | Inhibition of bacterial growth (marine bacteria; strain 27): + (+ denotes growth present but inhibited, p < 0.01) | Inhibition of bacterial growth (marine bacteria; strain 28): 0 | Inhibition of bacterial growth (marine bacteria; strain 29): + (+ denotes growth present but inhibited, p < 0.01) | Inhibition of bacterial growth (marine bacteria; strain 30): +++ (+++ denotes little or no growth, p < 0.001)

CNCCC(Oc1ccc(C(F)(F)F)cc1)c1ccccc1 (stereo not drawn) [PZC, fluoxetine hydrochloride]
Prevention of settlement of Bugula larvae (Bugula neritina larvae): 3 | Number of strains with strongly inhibited growth (marine bacteria): 3 | Inhibition of bacterial growth (marine bacteria; strain 1 (Rhodovulum)): 0 | Inhibition of bacterial growth (marine bacteria; strain 2 (Erythrobacter)): + (+ denotes growth present but inhibited, p < 0.01) | Inhibition of bacterial growth (marine bacteria; strain 3 (Erythrobacter)): + (+ denotes growth present but inhibited, p < 0.01) | Inhibition of bacterial growth (marine bacteria; strain 4 (Bacillus)): 0 | Inhibition of bacterial growth (marine bacteria; strain 6 (Vibrio)): 0 | Inhibition of bacterial growth (marine bacteria; strain 7 (Vibrio)): + (+ denotes growth present but inhibited, p < 0.01) | Inhibition of bacterial growth (marine bacteria; strain 8 (Bacillus)): + (+ denotes growth present but inhibited, p < 0.01) | Inhibition of bacterial growth (marine bacteria; strain 9 (Bacillus)): + (+ denotes growth present but inhibited, p < 0.01) | Inhibition of bacterial growth (marine bacteria; strain 10 (Halobacillus)): +++ (+++ denotes little or no growth, p < 0.001) | Inhibition of bacterial growth (marine bacteria; strain 11 (Pseudomonas)): + (+ denotes growth present but inhibited, p < 0.01) | Inhibition of bacterial growth (marine bacteria; strain 12 (Gordonia)): + (+ denotes growth present but inhibited, p < 0.01) | Inhibition of bacterial growth (marine bacteria; strain 13 (Bacillus)): + (+ denotes growth present but inhibited, p < 0.01) | Inhibition of bacterial growth (marine bacteria; strain 14 (Vibrio)): 0 | Inhibition of bacterial growth (marine bacteria; strain 16 (Pseudoalteromonas)): 0 | Inhibition of bacterial growth (marine bacteria; strain 17 (Gordonia)): +++ (+++ denotes little or no growth, p < 0.001) | Inhibition of bacterial growth (marine bacteria; strain 18 (Microbacterium)): + (+ denotes growth present but inhibited, p < 0.01) | Inhibition of bacterial growth (marine bacteria; strain 19 (Erythrobacter)): + (+ denotes growth present but inhibited, p < 0.01) | Inhibition of bacterial growth (marine bacteria; strain 20): + (+ denotes growth present but inhibited, p < 0.01) | Inhibition of bacterial growth (marine bacteria; strain 21): 0 | Inhibition of bacterial growth (marine bacteria; strain 24): 0 | Inhibition of bacterial growth (marine bacteria; strain 26): 0 | Inhibition of bacterial growth (marine bacteria; strain 27): + (+ denotes growth present but inhibited, p < 0.01) | Inhibition of bacterial growth (marine bacteria; strain 28): 0 | Inhibition of bacterial growth (marine bacteria; strain 29): + (+ denotes growth present but inhibited, p < 0.01) | Inhibition of bacterial growth (marine bacteria; strain 30): +++ (+++ denotes little or no growth, p < 0.001)

Cc1nccn1CC1CCc2c(c3ccccc3n2C)C1=O (stereo not drawn) [ZFN, ondansetron hydrochloride]
LD50 [1, 2]: 468.96 ng/mL | Prevention of settlement of Bugula larvae (Bugula neritina larvae): 8

CN[C@H]1CC[C@@H](c2ccc(Cl)c(Cl)c2)c2ccccc21.Cl [ZLT, sertraline hydrochloride]
LD50 [1, 2]: 1.58 ng/mL | Toxicity to barnacle nauplii ([1]; crude rank, best (1) to worst (8)): 1 | Prevention of settlement of Bugula larvae (Bugula neritina larvae): 1

Cc1cc2c(s1)Nc1ccccc1N=C2N1CCN(C)CC1 [ZPX, olanzapine]
LD50 [1, 2]: 505.82 ng/mL | Prevention of settlement of Bugula larvae (Bugula neritina larvae): 6
